Results: patent US20220386606A1, “SPECIFICALLY SUBSTITUTED 3-PHENYL-5-SPIROCYCLOPENTYL-3-PYRROLIN-2-ONES AND THEIR USE AS HERBICIDES” (Bayer Aktiengesellschaft, priority 2019, published 2022)

What was measured:
ALOMY [1] = assay: Post-emergence herbicidal action against ALOMY; format: in vivo, Alopecurus myosuroides; details: 80 g/ha, visual assessment after about 3 weeks
Procedure, shortened: (§1)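 Greenhouse post-emergence test; one-leaf stage (2–3 wk post-sowing), sandy loam. Spray: WP/EC in water, 600–800 l/ha, 0.2% wetting agent, onto green parts. Visual rating ~3 wk later, % vs untreated (100% = dead, 0% = like control).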

AMARE [2] = assay: Pre-emergence herbicidal action against AMARE; format: in vivo, Amaranthus retroflexus; details: 320 g/ha
Procedure, shortened: (§2)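 Sandy loam, wood-fiber pots, seeds covered with soil. Spray onto soil surface: aqueous WP/EC, 600 to 800 L/ha, 0.2% wetting agent. Greenhouse 3 weeks; visual % score vs untreated controls.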

AVEFA [3] = assay: Post-emergence herbicidal action against AVEFA; format: in vivo, Avena fatua; details: 80 g/ha, visual assessment after about 3 weeks
Procedure, shortened: as §1

SETVI [4] = assay: Pre-emergence herbicidal action against SETVI; format: in vivo, Setaria viridis; details: 320 g/ha, scored visually after 3 weeks vs untreated controls
Procedure, shortened: as §2

LOLRI [5] = assay: Post-emergence herbicidal action against LOLRI; format: in vivo, Lolium rigidum; details: 80 g/ha, visual assessment about 3 weeks after treatment vs untreated controls
Procedure, shortened: as §1

SETVI [6] = assay: Post-emergence herbicidal action against SETVI; format: in vivo, Setaria viridis; details: 80 g/ha, visual assessment about 3 weeks after treatment vs untreated controls
Procedure, shortened: as §1

VERPE [7] = assay: Pre-emergence herbicidal action against VERPE; format: in vivo, Veronica persica; details: 320 g/ha
Procedure, shortened: as §2

ECHCG [8] = assay: Post-emergence herbicidal action against ECHCG; format: in vivo, Echinochloa crus-galli; details: 80 g/ha, visual assessment about 3 weeks after treatment vs untreated controls
Procedure, shortened: as §1

DIGSA [9] = assay: Pre-emergence herbicidal action against DIGSA; format: in vivo, Digitaria sanguinalis; details: 320 g/ha, scored visually after 3 weeks vs untreated controls
Procedure, shortened: as §2

AVEFA [10] = assay: Pre-emergence herbicidal action against AVEFA; format: in vivo, Avena fatua; details: 320 g/ha, scored visually after 3 weeks vs untreated controls
Procedure, shortened: as §2

ECHCG [11] = assay: Pre-emergence herbicidal action against ECHCG; format: in vivo, Echinochloa crus-galli; details: 320 g/ha, scored visually after 3 weeks vs untreated controls
Procedure, shortened: as §2

MATIN = assay: Pre-emergence herbicidal action against MATIN; format: in vivo; details: 320 g/ha
Procedure, shortened: as §2

VIOTR = assay: Pre-emergence herbicidal action against VIOTR; format: in vivo, Viola tricolor; details: 320 g/ha
Procedure, shortened: as §2

ABUTH [12] = assay: Pre-emergence herbicidal action against ABUTH; format: in vivo, Abutylon threophrasti; details: 320 g/ha
Procedure, shortened: as §2

AMARE [13] = assay: Post-emergence herbicidal action against AMARE; format: in vivo, Amaranthus retroflexus; details: 80 g/ha, visual assessment about 3 weeks after treatment vs untreated controls
Method: (§3) Seeds of monocotyledonous and dicotyledonous weed and crop plants are laid out in sandy loam soil in wood-fiber pots, covered with soil and cultivated in a greenhouse under good growth conditions. 2 to 3 weeks after sowing, the test plants are treated at the one-leaf stage. The compounds of the invention, formulated in the form of wettable powders (WP) or as emulsion concentrates (EC), are then sprayed onto the green parts of the plants as aqueous suspension or emulsion at a water application rate equating to 600 to 800 l/ha with addition of 0.2% wetting agent. After the test plants have been left to stand in the greenhouse under optimal growth conditions for about 3 weeks, the action of the preparations is assessed visually in comparison to untreated controls (herbicidal action in percent (%): 100% activity=the plants have died, 0% activity=like control plants).

LOLRI [14] = assay: Pre-emergence herbicidal action against LOLRI (Table 8, titled post-emergence at 320 g/ha); format: in vivo, Lolium rigidum; details: table stands in the pre-emergence section
Procedure, shortened: as §2

ALOMY [15] = assay: Pre-emergence herbicidal action against ALOMY; format: in vivo, Alopecurus myosuroides; details: 320 g/ha, scored visually after 3 weeks vs untreated controls
Procedure, shortened: as §2

DIGSA [16] = assay: Post-emergence herbicidal action against DIGSA; format: in vivo, Digitaria sanguinalis; details: 80 g/ha, visual assessment about 3 weeks after treatment vs untreated controls
Procedure, shortened: as §1

POLCO = assay: Pre-emergence herbicidal action against POLCO; format: in vivo, Polygonum convolvulus; details: 320 g/ha
Procedure, shortened: as §2

VERPE [17] = assay: Post-emergence herbicidal action against VERPE; format: in vivo, Veronica persica; details: 80 g/ha, visual assessment about 3 weeks after treatment vs untreated controls
Method: as §3

ABUTH [18] = assay: Post-emergence herbicidal action against ABUTH; format: in vivo, Abutylon threophrasti; details: 80 g/ha, visual assessment about 3 weeks after treatment vs untreated controls
Procedure, shortened: as §1

HORMU = assay: Post-emergence herbicidal action against HORMU; format: in vivo, Hordeum murinum; details: 80 g/ha, visual assessment about 3 weeks after treatment vs untreated controls
Procedure, shortened: as §1

Compound | Post-emergence action against ALOMY in % (ALOMY [1]) [%] | Pre-emergence action against AMARE in % (AMARE [2]) [%] | Post-emergence action against AVEFA in % (AVEFA [3]) [%] | Pre-emergence action against SETVI in % (SETVI [4]) [%] | Post-emergence action against LOLRI in % (LOLRI [5]) [%] | Post-emergence action against SETVI in % (SETVI [6]) [%] | Pre-emergence action against VERPE in % (VERPE [7]) [%] | Post-emergence action against ECHCG in % (ECHCG [8]) [%] | Pre-emergence action against DIGSA in % (DIGSA [9]) [%] | Pre-emergence action against AVEFA in % (AVEFA [10]) [%] | Pre-emergence action against ECHCG in % (ECHCG [11]) [%] | Pre-emergence action against MATIN in % (MATIN) [%] | Pre-emergence action against VIOTR in % (VIOTR) [%] | Pre-emergence action against ABUTH in % (ABUTH [12]) [%] | Pre-emergence herbicidal action against LOLRI in % (LOLRI [14]) [%] | Pre-emergence action against ALOMY in % (ALOMY [15]) [%] | Post-emergence action against DIGSA in % (DIGSA [16]) [%] | Pre-emergence action against POLCO in % (POLCO) [%] | Post-emergence action against VERPE in % (VERPE [17]) [%] | Post-emergence action against ABUTH in % (ABUTH [18]) [%] | also measured
C=CCOCC1CCC2(C1)NC(=O)C(c1c(C)cc(C#CC)cc1Cl)=C2O (stereo not shown) [Example I-44] | 100 | 100 | 80 | 100 | 80 | 100 | 80 | 100 | 100 | 90 | 90 | 80 | 100 | 80 | 100 | 100 | 100 | 100 | – | – | Post-emergence action against AMARE in % (AMARE [13]): 80%
CC#Cc1cc(C)c(C2=C(OC(=O)OCC)C3(CCC(COC)C3)NC2=O)c(Br)c1 (stereo not shown) [Example P-30] | 100 | 100 | 90 | 100 | 100 | 100 | 80 | 100 | 100 | 100 | 100 | – | 100 | 80 | 100 | 100 | 100 | 80 | 80 | 80 | –
CC#Cc1cc(C)c(C2=C(OC(=O)OCC)C3(CCC(COCC)C3)NC2=O)c(Cl)c1 (stereo not shown) [Example P-28] | 100 | 100 | 90 | 100 | 100 | 100 | 100 | 100 | 100 | 100 | 100 | 90 | 100 | 90 | 100 | 100 | 100 | 80 | 80 | – | –
CC#Cc1cc(Cl)c(C2=C(OC(=O)OCC)C3(CCC(COCC)C3)NC2=O)c(CC)c1 (stereo not shown) [Example P-21] | 100 | – | 100 | – | 100 | 100 | – | 100 | – | – | – | – | – | – | – | – | 100 | – | 80 | – | Post-emergence action against HORMU in % (HORMU): 100%
CC#Cc1cc(C)c(C2=C(O)C3(CCC(COCC)C3)NC2=O)c(OC)c1 (stereo not shown) [Example I-30] | 90 | 100 | 80 | 100 | 100 | – | – | 100 | 100 | 90 | 100 | 90 | 100 | – | 100 | 100 | 100 | – | 80 | 80 | –
CC#Cc1cc(C)c(C2=C(OC(=O)OCC)C3(CCC(COC)C3)NC2=O)c(Br)c1 (stereo not shown) [Example P-31] | 90 | 100 | 100 | 100 | 100 | 100 | 90 | 100 | 100 | 100 | 100 | – | 100 | 90 | 100 | 100 | 100 | 90 | – | – | Post-emergence action against AMARE in % (AMARE [13]): 80%
CC#Cc1cc(C)c(C2=C(OC(=O)C(C)C)C3(CCC(COCC)C3)NC2=O)c(Cl)c1 (stereo not shown) [Example P-29] | 100 | 100 | 90 | 100 | 100 | 100 | 100 | 100 | 100 | 100 | 100 | 90 | 100 | 80 | 100 | 100 | 100 | 90 | 80 | – | –
CC#Cc1cc(C)c(C2=C(OC(=O)OCC)C3(CCC(COCC)C3)NC2=O)c(F)c1 (stereo not shown) [Example P-54] | 100 | 100 | 100 | 100 | 100 | – | 80 | 100 | 100 | 90 | 100 | – | 100 | – | 100 | 100 | 100 | 80 | 80 | 80 | –
CC#Cc1cc(C)c(C2=C(O)C3(CCC(COCCC)C3)NC2=O)c(Cl)c1 (stereo not shown) [Example I-71] | 90 | – | 80 | 100 | 90 | 100 | 90 | 90 | 100 | 80 | 100 | 90 | 100 | – | 100 | 100 | 90 | – | 80 | – | –
